Test results as given in publication PMC11440508, “Dually Labeled Neurotensin NTS1R Ligands for Probing Radiochemical and Fluorescence-Based Binding Assays” (Journal of Medicinal Chemistry, 2024).

Assay: Radiochemical purity after storage (RP-HPLC)
Assay type: physicochemical
Conditions: stock solution, degradation by radiolysis
Description: Figure 2 (A) Radiochemical purities (>99%) of [^3H]13 and [^3H]18 directly after synthesis determined by RP-HPLC analysis. (B) Radiochemical purities of [^3H]13 and [^3H]18 determined 11 months after synthesis. The purities amounted to 92% ([^3H]13) and 80% ([^3H]18).
Over a period of 11 months, degradation of both dually labeled ligands by radiolysis was low (Figure 2B).
A solution of succinimidyl [^3H]propionate (molar activity: 3.89 TBq/mmol, purchased from Novandi, Södertälje, Sweden) (55.5 MBq, 0.75 mL, 14.3 nmol) in n-heptane/EtOAc 3:2 v/v was transferred from the delivered ampule into a 1.5 mL polypropylene reaction vessel with screw cap, and the solvent was removed in a vacuum concentrator (30 °C, ca. 30 min). […] To quantify the activity of the two radioligands and to determine the molar concentration, 2 × 2 μL of the preliminary stock solution were added to 998 μL of DMSO/H2O 3:7 v/v, and 4 × 10 μL of these dilutions were counted in 3 mL of liquid scintillator (Rotiscint Eco Plus, Carl Roth, Karlsruhe, Germany) with a Tri-Carb 3100TR liquid scintillation counter (PerkinElmer). […] The molar activity of the labeling reagent succinimidyl [^3H]propionate was determined by liquid chromatography–mass spectrometry (LC-MS) analysis. Coinjection of “cold” succinimidyl propionate allowed the quantification of the incorporated tritium (Novandi, Södertälje, Sweden). […]

## CCC(=O)NCCCCNC(=O)NC(=N)NCCC[C@H](NC(=O)[C@@H]1CCCN1C(=O)[C@@H](NC(=O)CCc1cn(CCCNC(=O)c2ccc(-c3c4ccc(=[N+](C)C)cc-4oc4cc(N(C)C)ccc34)c(C(=O)[O-])c2)nn1)C1CCNCC1)C(=O)N[C@@H](CCCNC(=N)N)C(=O)N1CCC[C@H]1C(=O)N[C@@H](Cc1ccc(O)cc1)C(=O)N[C@H](C(=O)N[C@@H](CC(C)C)C(=O)O)[C@@H](C)CC [[^3H]13]
  Radiochemical purity 11 months after synthesis: 92%
